The subject of one experiment is HSC. The experiment can be described thus: CRU assay (competitive repopulating units), primary and secondary. The experiment is classed as in vivo, mice. On the procedure:
CD45.1^+45.2^+-recipient mice were given a split dose of 550 Rads (x-ray source, RS2000-RAD source technologies, inc.) 4 hours apart for a lethal total dose of 1100 Rads. WBM (5×10^5) cells from 3AC (CD45.2) treated mice were competed with WBM cells from vehicle (CD45.1) treated mice and injected retro-orbitally into CD45.1^+45.2^+ hosts. PBMC multi-lineage reconstitution was evaluated every month post-transplant for 4 months. Transplanted mice were euthanized and serially transplanted to determine self-renewal capacity. Repopulating Units (RU) determination was previously decribed.^15 Briefly, RU=(C×CD45.2 repopulation %)/(100−CD45.2 repopulation %) where C=10^5 competitor cells.^6
Normal Repopulating units (RU) are calculated based on total number of competitor cells transplanted. Due to the expansion in the bone marrow compartment of SHIPi treated mice, we calculated the absolute RU numbers based on RU output determined by CRU assay and total BM cellularity. Total BM cellularity was determined via hemacytometer (BioRAD, TC20 cell counter) based on a total BM cells obtained from an intact set of femurs and tibias for each mouse in the study. Absolute RU=(Total BM cellularity/5×10^5)×RU.

Another experiment relates to immunoregulatory cells. Nature of the experiment: Preliminary oral K118 study: immunoregulatory cells. The experiment is classed as in vivo, wt C57BL/6 mice. The conditions noted are these: K118 orally 10 mg/kg in water. On the procedure:
K118 was administered in water, and in wt C57BL/6 mice.

A further experiment deals with G-CSF. Nature of the experiment: G-CSF ELISA of serum of treated mice. The experiment is classed as in vivo. The conditions noted are these: K118 10 mg/kg i.p. 5 days, vs H2O; hydrochloride, 10 mg/kg. As for the experimental part:
Peripheral blood was collected in serum separation microvette tubes (SARSTEDT). Tubes were kept at room temperature for 2 hrs. and then spun at 2000×g for 20 min as per manufacturers recommendation. Serum levels of G-CSF in treated mice were determined using a Mouse G-CSF Quantikine Elisa kit (R&D systems).
Background: In an ELISA, binding on a coated surface is turned into a signal by an enzyme label.

A further experiment concerns MSC (CFU-F). Nature of the experiment: Colony forming unit (CFU-F) assay on BM cells of treated mice. The experiment is classed as in vivo. To be noted: K118 10 mg/kg i.p. 5 days, vs H2O. On the procedure: Primary whole BM cells (adherent+non-adherent) were plated in 60-mm plates (triplicates, 3×10^6 cells per plate) in CFU-F growth media: DMEM, Mesencult Serum (Stem Cell Technologies) with 1% penicillin-streptomycin-glutamine. Cells were cultured for approximately 7 days, after which cells were fixed with 70% ethanol and stained for alkaline phosphatase activity using the Leukocyte Alkaline Phosphatase Kit (Sigma) and counter-stained with neutral red (Sigma). Colonies (ALP^+ cells/colonies) were counted using the Software program “Image J” (National Institutes of Health Research Services Branch).

“Also recorded” adds a separate entry of the source.

Regarding `C[C@@]12CCC[C@H]1[C@@H]1CC[C@H]3C[C@@H](N)CC[C@]3(C)[C@H]1CC2.Cl` [K118, 3β-amino-5α-androstane hydrochloride], the “absolute CRU numbers” value in the experiment with HSC (K118 treated vs H2O treated donors) is “significant increase”. For the same compound, in the experiment with HSC (primary CRU, WBM of K118 treated vs H2O treated mice), the CRU activity entry is reported as “significant increase”. Further, in the experiment with immunoregulatory cells, the neutrophil numbers entry was “trend for increased”. Besides, the “frequency of natural T regulatory cells (nTreg, CD4+CD25+FoxP3+)” value with immunoregulatory cells (mesenteric lymph node (mLN)) and with immunoregulatory cells (spleen) was “Significant increases” throughout. The “frequency of myeloid derived suppressor cells (MDSC, Gr1+Mac1+)” value in the experiment on immunoregulatory cells (spleen) was “significant increase”. For the same compound, the “G-CSF production (serum)” value in the experiment with G-CSF is recorded as “significant increase; also recorded: super-induces”. For the same compound, the “frequency of CFU-F in BM” value with MSC (CFU-F) was “significantly increased frequency”.

The record behind these values is US20200129523A1, “SHIP INHIBITION TO INDUCE EXPRESSION OF GRANULOCYTE COLONY STIMULATING FACTOR IN A SUBJECT” (THE RESEARCH FOUNDATION FOR THE STATE UNIVERSITY OF NEW YORK, priority 2014, published 2020).
